Reference: PMC5363072 (Bioorganic & medicinal chemistry letters, 2016)
Values belong to the compound of their own block, whether it stands above or below them.

How the values were obtained:
Rat ASCT2 = biological target: T1, Rat ASCT2 (Rattus norvegicus, UniProt D3ZJ25); type: cell-based
T1 sequence (D3ZJ25 1-555): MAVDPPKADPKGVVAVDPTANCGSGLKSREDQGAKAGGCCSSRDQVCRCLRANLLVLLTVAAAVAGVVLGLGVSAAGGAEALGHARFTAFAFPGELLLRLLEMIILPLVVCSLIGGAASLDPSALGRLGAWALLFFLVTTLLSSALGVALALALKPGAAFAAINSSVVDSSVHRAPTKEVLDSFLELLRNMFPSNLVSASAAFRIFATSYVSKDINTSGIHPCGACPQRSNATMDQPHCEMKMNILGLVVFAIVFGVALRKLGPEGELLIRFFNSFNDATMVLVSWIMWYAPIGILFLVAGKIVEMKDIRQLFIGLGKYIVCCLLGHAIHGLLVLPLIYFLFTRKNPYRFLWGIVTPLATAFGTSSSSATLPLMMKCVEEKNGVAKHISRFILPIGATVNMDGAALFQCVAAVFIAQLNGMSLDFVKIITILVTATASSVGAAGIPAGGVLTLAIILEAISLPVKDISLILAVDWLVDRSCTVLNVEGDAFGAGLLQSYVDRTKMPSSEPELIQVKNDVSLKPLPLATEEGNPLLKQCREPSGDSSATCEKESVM

ASCT2 = conditions: commercially available ASCT2 inhibitor; cited from earlier work

- Ki (Rat ASCT2): 83 ± 20 µM
SMILES: O=C(O)[C@@H]1C[C@@H](Cc2ccccc2F)CN1 [(R)-γ-(2-fluoro-benzyl)-L-proline]

SMILES: O=C(O)[C@@H]1C[C@@H](Cc2ccc(-c3ccccc3)cc2)CN1 [(R)-γ-(4-biphenylmethyl)-L-proline]
- higher affinity compared to any other ASCT2 inhibitor tested so far (Rat ASCT2; compared to authors' earlier ASCT2 inhibitors [11],[15]): about 8 fold

SMILES: N[C@@H](CCC(=O)Nc1ccc([N+](=O)[O-])cc1)C(=O)O [L-γ-glutamyl-nitroanilide]
- affinity for ASCT2 (ASCT2): mM affinity

- activity in ASCT2 (Rat ASCT2; concentration up to 1 mM): does not induce any activity
SMILES: O=C(O)[C@@H]1CCCN1 [proline]
